± gives the standard deviation of the averaged measurements.
Tests used:
Details in all cases: 72 h
HepG2 [1] = test: relative viability EC50 (midpoint between 100% and the lowest measured viability); higher = less toxic
Caco-2 [2] = test: as above
Vero E6 [3] = test: as above
U2OS [4] = test: as above
Calu-3 [5] = test: as above
HepG2 [6] = test: drug sensitivity score (DSS) for viability; higher = more toxic; extreme values may be limits of the assay
Caco-2 [7] = test: as above
Vero E6 [8] = test: as above
U2OS [9] = test: as above
Calu-3 [10] = test: as above
HepG2 [11] = test: cell viability relative to DMSO; higher = less toxic
Caco-2 [12] = test: as above
Vero E6 [13] = test: as above
U2OS [14] = test: as above
Calu-3 [15] = test: as above

Row | SMILES | relative viability EC50 (HepG2 [1]) | relative viability EC50 (Caco-2 [2]) | relative viability EC50 (Vero E6 [3]) | relative viability EC50 (U2OS [4]) | relative viability EC50 (Calu-3 [5]) | drug sensitivity score (HepG2 [6]) | drug sensitivity score (Caco-2 [7]) | drug sensitivity score (Vero E6 [8]) | drug sensitivity score (U2OS [9]) | drug sensitivity score (Calu-3 [10]) | cell viability (HepG2 [11]; 1 nM) | cell viability (HepG2 [11]; 10 nM) | cell viability (HepG2 [11]; 100 nM) | cell viability (HepG2 [11]; 1000 nM) | cell viability (HepG2 [11]; 10000 nM) | cell viability (Caco-2 [12]; 1 nM) | cell viability (Caco-2 [12]; 10 nM) | cell viability (Caco-2 [12]; 100 nM) | cell viability (Caco-2 [12]; 1000 nM) | cell viability (Caco-2 [12]; 10000 nM) | cell viability (Vero E6 [13]; 1 nM) | cell viability (Vero E6 [13]; 10 nM) | cell viability (Vero E6 [13]; 100 nM) | cell viability (Vero E6 [13]; 1000 nM) | cell viability (Vero E6 [13]; 10000 nM) | cell viability (U2OS [14]; 1 nM) | cell viability (U2OS [14]; 10 nM) | cell viability (U2OS [14]; 100 nM) | cell viability (U2OS [14]; 1000 nM) | cell viability (U2OS [14]; 10000 nM) | cell viability (Calu-3 [15]; 1 nM) | cell viability (Calu-3 [15]; 10 nM) | cell viability (Calu-3 [15]; 100 nM) | cell viability (Calu-3 [15]; 1000 nM) | cell viability (Calu-3 [15]; 10000 nM)
1 | C[C@@H](C1=C(CCN(C)C)Cc2ccccc21)c1ccccn1 (racemic) [dimetindene] | > 10 µM | > 10 µM | > 10 µM | > 10 µM | > 10 µM | 0 | 0 | 0 | 0 | 0 | 104 ± 4.7% | 98 ± 4.8% | 106 ± 5.9% | 89.7 ± 3.2% | 103 ± 2.5% | 93.1 ± 6.5% | 98.2 ± 4.7% | 96.3 ± 4.6% | 102 ± 10% | 104.8 ± 0.92% | 97.2 ± 8% | 98.2 ± 1.2% | 100.2 ± 0.78% | 100% | 96.5 ± 8% | 99.5 ± 0.57% | 104 ± 1.8% | 99.3 ± 7.8% | 100 ± 1.4% | 94.8 ± 2.6% | 98.2 ± 2% | 113 ± 4% | 103.2 ± 0.21% | 105 ± 3.2% | 96 ± 2%
2 | CCCC[C@H]1OC(=O)c2ccccc21 [butylphthalide] | > 10 µM | > 10 µM | > 10 µM | > 10 µM | > 10 µM | 0 | 0 | 0 | 0 | 0 | 104% | 107% | 97.2% | 97.8% | 94.9% | 111% | 95.2% | 102% | 88.9% | 102% | 103% | 91% | 105% | 106% | 101% | 102% | 98.9% | 102% | 95% | 98.7% | 103% | 96.8% | 98.3% | 95.5% | 104%
3 | CC(C)=CCC/C(C)=C/CC/C(C)=C/CSc1ccccc1C(N)=O [farnesyl-thiosalicylic-acid-amide] | > 10 µM | > 10 µM | > 10 µM | > 10 µM | > 10 µM | 0.1 | 0 | 0 | 0 | 0 | 100% | 105% | 96.6% | 108% | 85.7% | 104% | 116% | 95% | 116% | 104% | 89.8% | 101% | 92.8% | 87.1% | 99.7% | 98.9% | 100% | 105% | 98.3% | 102% | 106% | 92.4% | 108% | 105% | 111%
4 | CO/N=C(\C(=O)N[C@@H]1C(=O)N2C(C(=O)OCOC(=O)C(C)(C)C)=C(C)CS[C@H]12)c1csc(N)n1 [cefetamet-pivoxil] | > 10 µM | > 10 µM | > 10 µM | > 10 µM | > 10 µM | 0 | 0 | 0 | 0 | 0 | 102% | 113% | 90.9% | 97.8% | 93% | 108% | 96.5% | 105% | 99.7% | 97.9% | 91.5% | 103% | 89.5% | 91.7% | 108% | 102% | 93.5% | 99.6% | 104% | 99.5% | 104% | 93.2% | 102% | 114% | 103%
5 | CC(C)N(CCCNC(=O)Nc1ccc(C(C)(C)C)cc1)C[C@H]1O[C@@H](n2cc(Br)c3c(N)ncnc32)[C@H](O)[C@@H]1O [SGC-0946] | > 10 µM | > 10 µM | > 10 µM | > 10 µM | > 10 µM | 0 | 0 | 0 | 0 | 0 | 92.1% | 96.6% | 106% | 104% | 96.6% | 91.2% | 98.7% | 101% | 103% | 101% | 94.4% | 95.7% | 93% | 97.6% | 110% | 92.3% | 102% | 99.7% | 112% | 107% | 96% | 106% | 93.9% | 101% | 95.2%
6 | Fc1ccc([C@@H]2CCNC[C@H]2COc2ccc3c(c2)OCO3)cc1 [paroxetine] | > 10 µM | > 10 µM | > 10 µM | > 10 µM | > 10 µM | 0 | 0.6 | 0 | 0 | 0 | 117% | 120% | 108% | 83.7% | 102% | 85.8% | 102% | 111% | 98.6% | 82.1% | 95.9% | 104% | 98.7% | 101% | 100% | 97.7% | 96.4% | 103% | 98% | 101% | 95.9% | 87.4% | 93.1% | 85.1% | 108%
7 | O=c1cc(N2CCNCC2)oc2c(-c3ccccc3)cccc12 | > 10 µM | > 10 µM | > 10 µM | > 10 µM | > 10 µM | 0 | 0 | 0 | 0 | 0 | 105% | 100% | 98.2% | 101% | 102% | 93.3% | 88.9% | 89.2% | 93.9% | 106% | 100% | 96.4% | 104% | 93.1% | 103% | 96.6% | 100% | 96.8% | 102% | 101% | 109% | 98.4% | 108% | 106% | 117%
8 | COC(=O)/C=C/c1cccc(N(Cc2ccc(-c3ccc(N(C)C)cc3)cc2)C(=O)C2CCCCC2)c1 [fexaramine] | > 10 µM | > 10 µM | > 10 µM | > 10 µM | > 10 µM | 0.3 | 1.3 | 0.1 | 0.1 | 0 | 105% | 104% | 97.4% | 101% | 83.5% | 104% | 99.9% | 104% | 92% | 81.1% | 107% | 103% | 99.4% | 98.3% | 88.8% | 103% | 97.5% | 99.9% | 97% | 88.5% | 110% | 95.4% | 104% | 96.5% | 92.3%
9 | CC(=O)N[C@@H](CS)C(=O)O [acetylcysteine] | > 10 µM | > 10 µM | > 10 µM | > 10 µM | > 10 µM | 0 | 0 | 0 | 0 | 0 | 99.2% | 103% | 94.9% | 103% | 104% | 105% | 87.1% | 98.1% | 101% | 100% | 104% | 106% | 102% | 103% | 97.8% | 99.1% | 97.2% | 100% | 95.5% | 102% | 101% | 101% | 93% | 96.2% | 104%
10 | CC(=O)N(OCc1ccccc1)[C@@H]1c2cc(C#N)ccc2OC(C)(C)[C@H]1O | > 10 µM | > 10 µM | > 10 µM | > 10 µM | > 10 µM | 0 | 0 | 0 | 0 | 0 | 95.1% | 103% | 96.2% | 109% | 109% | 97.8% | 100% | 99% | 96.5% | 103% | 95.3% | 97.7% | 94.2% | 99.9% | 109% | 97.5% | 96.1% | 105% | 94.5% | 94.8% | 103% | 96.9% | 98% | 103% | 106%
11 | Nc1cc(C(F)(F)F)c(-c2cc(N3CCOCC3)nc(N3CCOCC3)n2)cn1 [buparlisib] | 1.3 µM | 0.761 µM | 1.22 µM | 1.57 µM | 0.434 µM | 9.1 | 10.3 | 8.4 | 7.9 | 12.7 | 100% | 96.6% | 95.7% | 67.2% | 10.5% | 95.3% | 99% | 91.5% | 53.5% | 18% | 101% | 97% | 92.9% | 66.2% | 17.8% | 103% | 102% | 104% | 79.4% | 15.6% | 116% | 97.3% | 87.7% | 40.5% | 18%
12 | CN1CCN(c2ccc(-c3cccc(CN4CCOCC4)c3)cc2NC(=O)c2c[nH]c(=O)cc2C(F)(F)F)CC1 [OICR-9429] | > 10 µM | > 10 µM | > 10 µM | > 10 µM | > 10 µM | 0 | 0 | 0 | 0 | 0 | 108% | 98.7% | 99.7% | 95.8% | 95% | 106% | 97.7% | 94.1% | 92% | 98.2% | 99.1% | 101% | 98% | 100% | 95.1% | 102% | 98.2% | 99.2% | 97.4% | 100% | 97% | 108% | 98% | 104% | 88.3%
13 | COc1ccc(Cl)cc1NC(=O)Nc1cc(C)nc2ccccc12 [PQ-401] | > 10 µM | > 10 µM | > 10 µM | > 10 µM | > 10 µM | 0.4 | 1.1 | 0 | 0.1 | 0 | 99.1% | 106% | 92% | 103% | 80.3% | 93.8% | 97% | 108% | 97.6% | 77.8% | 96.4% | 95.3% | 92.8% | 96.4% | 90.8% | 98.2% | 98.5% | 100% | 101% | 86.1% | 106% | 93.4% | 107% | 94.9% | 100%

— the supplement of paper PMC13380429
